Source: US8372831B2, “Isoxazoline linked pyrrolo[2,1-c][1,4]benzodiazepine hybrids as potential anticancer agents and the process for preparation thereof” (Council of Scientific & Industrial Research, priority 2008, dated 2013)

Test system: duplex-form calf thymus DNA (CT-DNA)
Test: Thermal denaturation studies with calf thymus DNA
Type: binding
Conditions: [PBD]:[DNA] molar ratio 1:5, CT-DNA 100 μM, ligand 20 μM, pH 7.00
Procedure: Compounds have been subjected to thermal denaturation studies with duplex-form calf thymus DNA (CT-DNA) using a modification of a reported procedure. Working solutions in aqueous buffer (10 mM NaH2PO4/Na2HPO4, 1 mM Na2EDTA, pH 7.00+0.01) containing CT-DNA (100 (μm in phosphate) and the PBD (20(μm) have been prepared by addition of concentrated PBD solutions in DMSO to obtain a fixed [PBD]/[DNA] molar ratio of 1:5. The DNA-PBD solutions have been incubated at 37° C. for 0 and 18 hrs prior to analysis. Samples have been monitored at 260 nm using a Beckman DU-800 spectrophotometer fitted with high performance temperature controller, and heated at 1° C. min^−1 in the 40-110° C. range. DNA helix→coil transition temperatures (Tm) have been obtained from the maxima in the d(A260)/d T derivative plots. Drug-induced alterations in DNA melting behavior are given by: ΔTm=Tm(DNA+PBD)−Tm(DNA alone), where the Tm value for the PBD-free CT-DNA is 68.5±0.01.
The DNA-binding for these novel C8-linked isoxazoline-PBD hybrids has been examined by thermal denaturation studies using calf thymus CT-DNA. […] Data for 5a-c, 9b and 9g and DC-81 are included in Table 4 for comparison.

SMILES	ΔTm after incubation at 37° C. for 0 hrs	ΔTm after incubation at 37° C. for 18 hrs
COc1cc(C2=NOC(c3cc(OC)c(OC)c(OC)c3)C2)ccc1OCCCOc1cc2c(cc1OC)C(=O)N1CCC[C@H]1C=N2 (stereo partly drawn) [Compound 5a, (11aS)-7-(methyloxy)-8-(3-[(2-(methyloxy)-4-5-[3,4,5-tri(methyloxy)phenyl]-4-,5-dihydro-3-isoxazolylphenyl)oxy]propyloxy)-2,3,5,11a-tetrahydro-1H benzo[e]pyrrolo[1,2-a][1,4]diazepi-5-one]	3.9 °C	6.0 °C
COc1cc2c(cc1OCCCCCOc1c(OC)cc(C3CC(c4ccc(OC)c(OC)c4OC)=NO3)cc1OC)N=C[C@@H]1CCCN1C2=O (stereo partly drawn) [Compound 9g, (11aS)-8-(5-[(2,6-di(methyloxy)-4-3-[2,3,4-tri(methyloxy)phenyl]-4,5-dihydro-5-isoxazolylphenyl)oxy]pentyloxy)-7-(methyloxy)-2,3,5,11a-tetrahydro-1H-benzo[e]pyrrolo[1,2-a][1,4]diazepin-5-one]	1.4 °C	2.1 °C
COc1cc(C2=NOC(c3cc(OC)c(OC)c(OC)c3)C2)ccc1OCCCCCOc1cc2c(cc1OC)C(=O)N1CCC[C@H]1C=N2 (stereo partly drawn) [Compound 5c, (11aS)-7-(methyloxy)-8-(5-[(2-(methyloxy)-4-5-[3,4,5-tri(methyloxy)phenyl]-4,5-dihydro-3-isoxazolylphenyl)oxy]pentyloxy)-2,3,5,11a-tetrahydro-1H benzo[e]pyrrolo[1,2-a][1,4]diazepi-5-one]	7.0 °C	8 °C
COc1cc2c(cc1O)N=CC1CCCN1C2=O (centres unmarked) [DC-81, reference compound]	0.3 °C	0.7 °C
